How the values were obtained:
[1] = molecular target: T1, Tyrosine-protein kinase JAK3 (Homo sapiens, UniProt P52333); assay: Inhibition of JAK3 (unknown origin) by filter assay
T1 sequence (P52333 whole entry): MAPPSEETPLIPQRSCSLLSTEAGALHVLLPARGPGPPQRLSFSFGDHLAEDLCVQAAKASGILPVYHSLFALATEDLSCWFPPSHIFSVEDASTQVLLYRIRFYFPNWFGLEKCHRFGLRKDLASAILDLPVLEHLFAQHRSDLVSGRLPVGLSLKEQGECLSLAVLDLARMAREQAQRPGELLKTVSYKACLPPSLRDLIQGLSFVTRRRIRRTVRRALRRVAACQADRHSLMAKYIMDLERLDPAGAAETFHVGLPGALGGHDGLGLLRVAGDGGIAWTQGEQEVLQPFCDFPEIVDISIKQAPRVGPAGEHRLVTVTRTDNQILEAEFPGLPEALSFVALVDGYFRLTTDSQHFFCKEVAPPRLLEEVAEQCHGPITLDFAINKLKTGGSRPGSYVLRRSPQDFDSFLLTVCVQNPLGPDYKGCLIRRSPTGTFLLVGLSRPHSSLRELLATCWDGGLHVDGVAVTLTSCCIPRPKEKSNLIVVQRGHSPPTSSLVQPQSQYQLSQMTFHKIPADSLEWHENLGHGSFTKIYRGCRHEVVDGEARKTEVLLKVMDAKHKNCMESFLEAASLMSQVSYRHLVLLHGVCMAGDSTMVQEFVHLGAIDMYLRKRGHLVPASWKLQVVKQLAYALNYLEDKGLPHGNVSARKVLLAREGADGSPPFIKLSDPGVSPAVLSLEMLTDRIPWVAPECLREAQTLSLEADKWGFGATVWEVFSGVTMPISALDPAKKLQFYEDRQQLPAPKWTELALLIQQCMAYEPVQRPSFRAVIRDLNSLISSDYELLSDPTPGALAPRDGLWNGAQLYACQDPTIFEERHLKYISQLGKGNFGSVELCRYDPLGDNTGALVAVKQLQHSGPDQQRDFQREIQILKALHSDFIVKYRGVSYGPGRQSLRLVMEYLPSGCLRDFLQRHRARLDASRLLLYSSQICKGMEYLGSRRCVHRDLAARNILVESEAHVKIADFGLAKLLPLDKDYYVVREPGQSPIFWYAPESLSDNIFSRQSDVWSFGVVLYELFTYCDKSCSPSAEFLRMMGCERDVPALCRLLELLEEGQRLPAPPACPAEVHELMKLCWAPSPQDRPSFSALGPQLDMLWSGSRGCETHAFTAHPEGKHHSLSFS

[2] = molecular target: Tyrosine-protein kinase JAK1 (Homo sapiens, UniProt P23458); assay: Inhibition of JAK1 (unknown origin) bycaliper assay
[3] = molecular target: Non-receptor tyrosine-protein kinase TYK2 (Homo sapiens, UniProt P29597); assay: Inhibition of TYK2 (unknown origin) by caliper assay
[4] = molecular target: Tyrosine-protein kinase JAK2 (Homo sapiens, UniProt O60674); assay: Inhibition of JAK2 (unknown origin) by caliper assay
Blood = assay: Inhibition of IL2-induced IFN-gamma production in human whole blood incubated for 18 hrs by ELISA method; assay type: functional, tissue-based
[5] = Fraction unbound in human serum; assay type: ADME, cell-free
[6] = Protein binding in human serum; assay type: ADME, cell-free; conditions: read-out: PB (converted)

Chain of Tyrosine-protein kinase JAK1 (P23458 whole entry): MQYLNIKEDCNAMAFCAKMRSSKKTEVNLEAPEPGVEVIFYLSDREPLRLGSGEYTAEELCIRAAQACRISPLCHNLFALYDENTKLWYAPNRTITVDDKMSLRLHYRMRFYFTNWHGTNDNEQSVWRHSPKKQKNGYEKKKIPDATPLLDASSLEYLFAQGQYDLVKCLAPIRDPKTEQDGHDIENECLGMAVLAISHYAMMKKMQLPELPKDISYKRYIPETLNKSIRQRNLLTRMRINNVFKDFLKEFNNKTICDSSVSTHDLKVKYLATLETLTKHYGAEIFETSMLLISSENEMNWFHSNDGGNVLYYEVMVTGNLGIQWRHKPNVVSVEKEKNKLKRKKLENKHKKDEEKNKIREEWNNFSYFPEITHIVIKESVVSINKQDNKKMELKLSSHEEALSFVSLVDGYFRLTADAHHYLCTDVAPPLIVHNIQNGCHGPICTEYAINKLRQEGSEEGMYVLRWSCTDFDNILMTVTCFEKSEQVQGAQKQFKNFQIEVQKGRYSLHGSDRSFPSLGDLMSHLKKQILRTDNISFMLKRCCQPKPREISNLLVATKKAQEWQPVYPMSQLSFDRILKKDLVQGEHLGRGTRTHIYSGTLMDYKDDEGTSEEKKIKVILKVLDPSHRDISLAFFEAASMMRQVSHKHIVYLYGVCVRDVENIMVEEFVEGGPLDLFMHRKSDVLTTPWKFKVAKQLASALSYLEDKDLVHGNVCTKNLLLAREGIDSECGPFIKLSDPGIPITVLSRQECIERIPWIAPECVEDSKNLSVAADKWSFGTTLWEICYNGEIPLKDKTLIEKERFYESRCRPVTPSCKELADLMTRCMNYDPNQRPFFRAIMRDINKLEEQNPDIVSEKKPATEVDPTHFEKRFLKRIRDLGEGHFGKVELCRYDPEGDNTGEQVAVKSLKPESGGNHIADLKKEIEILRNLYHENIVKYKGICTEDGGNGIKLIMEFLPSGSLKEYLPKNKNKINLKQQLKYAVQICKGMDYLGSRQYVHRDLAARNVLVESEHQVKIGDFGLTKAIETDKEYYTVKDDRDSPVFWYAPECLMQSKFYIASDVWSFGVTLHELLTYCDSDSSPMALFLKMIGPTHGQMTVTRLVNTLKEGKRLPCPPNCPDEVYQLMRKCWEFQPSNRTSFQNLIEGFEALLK
Chain of Tyrosine-protein kinase JAK2 (O60674 whole entry): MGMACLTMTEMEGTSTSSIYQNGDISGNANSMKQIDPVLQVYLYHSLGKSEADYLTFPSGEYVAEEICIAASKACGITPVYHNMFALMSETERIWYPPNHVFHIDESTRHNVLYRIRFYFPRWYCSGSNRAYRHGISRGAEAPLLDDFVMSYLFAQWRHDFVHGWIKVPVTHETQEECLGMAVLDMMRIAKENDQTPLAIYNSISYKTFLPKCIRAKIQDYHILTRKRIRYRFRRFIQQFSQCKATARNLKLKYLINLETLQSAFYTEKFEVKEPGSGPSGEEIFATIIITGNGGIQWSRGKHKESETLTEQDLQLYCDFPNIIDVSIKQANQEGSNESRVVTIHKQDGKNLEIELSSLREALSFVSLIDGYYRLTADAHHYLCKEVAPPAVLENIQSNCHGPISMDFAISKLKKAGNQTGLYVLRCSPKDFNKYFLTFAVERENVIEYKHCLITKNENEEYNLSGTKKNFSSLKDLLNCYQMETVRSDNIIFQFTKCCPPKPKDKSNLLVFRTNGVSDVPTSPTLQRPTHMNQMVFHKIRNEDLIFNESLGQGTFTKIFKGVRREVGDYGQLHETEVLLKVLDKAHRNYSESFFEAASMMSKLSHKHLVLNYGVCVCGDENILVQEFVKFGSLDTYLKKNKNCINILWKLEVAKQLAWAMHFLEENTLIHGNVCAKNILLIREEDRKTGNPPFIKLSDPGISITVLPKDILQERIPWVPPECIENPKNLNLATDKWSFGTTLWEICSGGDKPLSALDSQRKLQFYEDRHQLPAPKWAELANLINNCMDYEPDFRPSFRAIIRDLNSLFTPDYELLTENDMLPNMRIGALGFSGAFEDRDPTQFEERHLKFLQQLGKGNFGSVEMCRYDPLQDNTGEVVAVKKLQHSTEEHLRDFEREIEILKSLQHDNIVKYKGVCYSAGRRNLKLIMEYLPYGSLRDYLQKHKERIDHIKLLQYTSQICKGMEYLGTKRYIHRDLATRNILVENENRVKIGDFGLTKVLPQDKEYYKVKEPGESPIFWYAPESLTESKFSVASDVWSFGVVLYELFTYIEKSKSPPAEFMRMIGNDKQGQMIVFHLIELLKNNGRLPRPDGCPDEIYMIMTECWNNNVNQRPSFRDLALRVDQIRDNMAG
Chain of Non-receptor tyrosine-protein kinase TYK2 (P29597 whole entry): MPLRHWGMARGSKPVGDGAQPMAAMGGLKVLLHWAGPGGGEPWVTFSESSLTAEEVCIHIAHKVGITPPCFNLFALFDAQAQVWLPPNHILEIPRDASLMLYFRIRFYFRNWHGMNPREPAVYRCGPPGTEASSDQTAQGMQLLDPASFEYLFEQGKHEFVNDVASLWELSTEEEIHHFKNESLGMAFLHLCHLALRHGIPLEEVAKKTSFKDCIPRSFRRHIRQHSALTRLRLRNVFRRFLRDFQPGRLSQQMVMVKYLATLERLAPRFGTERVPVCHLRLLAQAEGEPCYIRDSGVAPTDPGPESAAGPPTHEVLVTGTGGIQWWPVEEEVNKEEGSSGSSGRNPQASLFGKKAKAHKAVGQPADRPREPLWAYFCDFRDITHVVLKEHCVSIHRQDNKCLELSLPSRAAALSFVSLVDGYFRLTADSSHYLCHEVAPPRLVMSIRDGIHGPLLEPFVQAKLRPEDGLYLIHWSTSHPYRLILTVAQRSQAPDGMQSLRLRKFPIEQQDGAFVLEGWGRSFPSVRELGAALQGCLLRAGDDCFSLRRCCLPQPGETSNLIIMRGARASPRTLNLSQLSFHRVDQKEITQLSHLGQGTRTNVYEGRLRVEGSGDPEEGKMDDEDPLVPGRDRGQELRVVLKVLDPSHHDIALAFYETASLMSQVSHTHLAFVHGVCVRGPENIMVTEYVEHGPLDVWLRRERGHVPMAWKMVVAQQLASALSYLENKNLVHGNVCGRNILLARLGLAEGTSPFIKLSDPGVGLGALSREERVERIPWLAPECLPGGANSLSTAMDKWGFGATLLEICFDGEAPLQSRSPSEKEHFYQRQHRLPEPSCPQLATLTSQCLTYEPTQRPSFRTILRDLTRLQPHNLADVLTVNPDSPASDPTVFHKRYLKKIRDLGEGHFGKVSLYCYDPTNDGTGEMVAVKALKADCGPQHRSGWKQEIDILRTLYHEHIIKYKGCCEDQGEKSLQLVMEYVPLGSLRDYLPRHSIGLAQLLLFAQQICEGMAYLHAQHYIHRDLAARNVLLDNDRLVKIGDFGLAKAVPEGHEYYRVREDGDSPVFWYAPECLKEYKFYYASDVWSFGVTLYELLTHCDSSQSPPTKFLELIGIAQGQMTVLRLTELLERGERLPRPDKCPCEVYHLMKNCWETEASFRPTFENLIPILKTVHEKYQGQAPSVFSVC

Row | SMILES | IC50 [1] [nM] | IC50 [2] [nM] | IC50 [3] [nM] | IC50 [4] [nM] | IC50 (Blood) [nM] | fraction unbound [5] | fraction unbound [6]
1 | CC1(C)CCC[C@H]1Nc1c(C(N)=O)cnn2cccc12 | 5 | 24 | 8 | 16 | 1200 | 0.019 | 0.019
2 | C[C@@]1(O)CCC[C@H]1Nc1c(C(N)=O)cnn2cccc12 (racemic) | 42 | 270 |  |  | 5300 |  | 
3 | CC1(C)[C@H](Nc2c(C(N)=O)cnn3cccc23)CC[C@@]1(C)O (racemic) | 3 | 26 | 7 | 31 | 360 | 0.16 | 
4 | CC1(C)[C@@H](N)CC[C@H]1Nc1c(C(N)=O)cnn2cccc12 (racemic) | 12 | 34 | 110 | 130 | 260 | 0.44 | 
5 | C[C@H](Nc1c(C(N)=O)cnn2cccc12)C(C)(C)C | 110 | 270 | 680 | 570 |  |  | 
6 | NC(=O)c1cnn2cccc2c1NC1CCCC1 |  | 170 | 150 | 250 |  |  | 
7 | CC1(C)[C@H](Nc2c(C(N)=O)cnn3cccc23)CC[C@]1(C)O (racemic) | 28 | 67 | 210 | 100 | 5000 |  | 
8 | CC1(C)[C@H](N)CC[C@H]1Nc1c(C(N)=O)cnn2cccc12 (racemic) | 24 | 41 | 110 | 170 | 250 |  | 
9 | C[C@]1(O)CCC[C@H]1Nc1c(C(N)=O)cnn2cccc12 (racemic) | 69 | 110 |  |  |  |  | 
10 | C[C@@]1(C#N)CCC[C@H]1Nc1c(C(N)=O)cnn2cccc12 (racemic) | 67 | 61 | 30 |  |  |  | 
11 | C[C@@]1(F)CCC[C@@H]1Nc1c(C(N)=O)cnn2cccc12 | 47 | 190 | 400 | 130 |  |  | 
12 | C[C@]1(C#N)CCC[C@H]1Nc1c(C(N)=O)cnn2cccc12 (racemic) | 10 | 15 | 6 |  | 250 | 0.27 | 
